Experimental data from patent US9207296B2, “Methods and apparatus for pasadena hyperpolarization” (Huntington Medical Research Institutes, priority 2008, dated 2015).
Several values for one entry are separate records, joined by “and”; a condition that tells them apart may be missing. Equal values may be shown once. Read-outs that look alike come from different tables or passages of the source.

Experiments:
[1] = 13C spin storage followed by refocused INEPT polarization transfer to 1H; format: physicochemical; conditions: for initial 13C polarization: 2.4 mL sample, polarizer at 1.76 mT; for T1 during 13C spin storage: FIG. 20 samples, […] succinate / 2.9 mM TFPP; for 13C polarization after storage: after 70 s (succinate) or 24 s (TFPP), 12° excitation pulse; for 13C polarization after storage / net 1H NMR signal enhancement / final 13C signal enhancement: 4.7 T; for net 1H NMR signal enhancement: after refocused INEPT; for final 13C signal enhancement: after storage; for increase of overall sensitivity by proton detection: factor versus hyperpolarized 13C detection; for polarization transfer efficiency 13C to 1H: refocused INEPT
Excerpt: Specifically, the present subject matter hyperpolarized the ^13C site of two well studied molecules, 1-^13C-succinate-d2 and 2,2,3,3-tetrafluoropropyl 1-^13C-propionate-d3 (TFPP), by […].
Hyperpolarization was then kept on ^13C for 70 s. During this time, the polarized sample was transferred from a low magnetic field polarizer operating at 1.76 mT to 4.7 T animal MR scanner. […] Then the refocused INEPT pulse sequence^10 with τINEPT=34 ms and τrefocus=32 ms (FIG. 19) was used to transfer polarization from ^13C to protons within 1-^13C-succinate-d2 (FIG. 20A and FIG. 20B). […] The delays of the refocused INEPT were τINEPT=20 ms and τrefocus=16 ms.

[2] = for 13C signal enhancement (nascent): at 4.7 T, relative to thermal polarization; for 13C polarization achieved (maximal): best value after calibration
Procedure: A number of strategies have been employed to quantify the extent of hyperpolarization [Association N.E.M. Determination of signal-to-noise ratio (SNR) in diagnostic magnetic resonance imaging. NEMA Standards, Publication MS 1-2001 (2001)]. In the present application, the following convention was applied. The signal enhancement (ηobserved) achieved by hyperpolarization was quantified in respect to the signal of a thermally polarized sample (100% ethanol, 188 mM of natural abundance ^13C at each site (Eq. 7)). The signal intensities were determined by numerical integration (xWINNMR software, Bruker Biospin, Germany)
[formula] (where IHP, Iref, CHP and Cref are integral intensities and molar concentrations of hyperpolarized and reference samples, respectively).
The decay of ^13C polarization caused by longitudinal relaxation (T1) of the hyperpolarized sample during the delivery to the detection system was determined (FIG. 15). This allows for the determination of the nascent signal enhancement (Eq. 8), and nascent level of achieved polarization (Eq. 9).
Unless otherwise indicated, PHP^t=0 and η^t=0 are reported in the work presented, using a ^13C polarization of PBoltzmann=0.00041% or 4.1 ppm at 298K and 4.7 T. T1 values for the […] reagent concerned in calibration and quality assurance (“QA”) were determined directly. A series of small angle (α≈8°) FID experiments was employed to probe the decay of the magnetization of the hyperpolarized agents (small excitation angle approximation, SEA). The T1 values were extracted by the fit of Equation 10 (Eq. 10) to the data points, taking into account the loss of magnetization caused by the excitation pulses.
Delivering hyperpolarized sample and triggered detection in the NMR scanner were further optimized. The polarizer was moved to the in vivo suite, where it was positioned carefully 7.63 m+0.5 cm from a small-animal horizontal bore, high field MRI (4.7T Bruker MRI scanner). An automated system was implemented, whereby the hyperpolarized solution was driven by remaining gas pressure in the reactor, through polyethelene (PE) tubing from the polarizer to an NMR-tube in a dual-tuned ^1H/^13C solenoid coil in the MR scanner; where after a precise interval (33 seconds) acquisition was triggered. The solution was then drained to permit successive experiments without coil repositioning.
Peak amplitude was quantified by comparison with the spectrum of ethanol (FIG. 16), using the equations described herein.

[3] = tested on: rat brain; conditions: rapid ante-grade injection into common carotid artery, 1 mL, overlaid on 1H MRI
[4] = T1 decay of hyperpolarization (small angle FID series); format: physicochemical

| Structure (SMILES) | initial 13C polarization [1] [%] | T1 during 13C spin storage [1] [s] | 13C polarization after storage [1] [%] | net 1H NMR signal enhancement [1] | final 13C signal enhancement [1] | increase of overall sensitivity by proton detection [1] | polarization transfer efficiency 13C to 1H [1] | other results |
| --- | --- | --- | --- | --- | --- | --- | --- | --- |
| O=C(O)CCC(=O)O [1-^13C-SUCC-d2,3, 1-^13C-succinate-d2,3] | 10.7 | 105 | 5.5 | 1,350 fold | 13,500 fold | 6.5 | 41% | effect of concentration on level of hyperpolarization ([2]; 1.65-2.89 mM in water, 0.96-2.93 mM in D2O): No effect; 13C signal enhancement at the point of measurement ([2]; 4.7 T, 33 s after production): 15,900 fold; PHP^t=0 average nascent polarization, stated in H2O ([2]; 16 experiments, in H2O before B1 calibration as printed): 15.3 ±1.9%; polarization at the point of measurement in water ([2]; H2O, mean delay 33 s): 5.4 ±1.3%; 13C signal enhancement (nascent) [2]: 49,000 fold and 37,400 ±4,600 fold; 13C signal enhancement (nascent) ([2]; listed as 13C succinate): 47,000 fold; 13C polarization achieved (maximal) ([2]; listed as 1-^13C succinate): 18%; 13C polarization achieved (maximal) ([2]; listed as 13C succinate): 19%; distribution of 13C image signal in vivo [3]: appeared in the anatomical distribution coincident with the rat brain; T1 of hyperpolarized 13C signal in D2O ([4]; D2O, pH 3, B0=4.7 T, N=4): 40 ± 2 s; T1 of hyperpolarized 13C signal in H2O ([4]; H2O, pH 3, B0=4.7 T, N=3, 1-3 mM SUC, 2.5 mM catalyst): 27 ± 3 s; T1 when buffered to physiological pH ([4]; buffered to pH 7 immediately before detection, preliminary): ~50 s |
| CC[13C](=O)OCCO [HEP, reference compound] |  |  |  |  |  |  |  | T1 decay time in D2O ([4]; D2O, pH 7, B0=4.7 T): 70 s; T1 decay time in H2O ([4]; H2O, pH 7, B0=4.7 T): 50 s |
| [2H]C([2H])C([2H])[13C](=O)OCC(F)(F)C(F)F (stereo not shown) [TFPP, 2,2,3,3-tetrafluoropropyl 1-^13C-propionate-d3] | 14 | 67 | 9.5 | 2,930 fold | 23,300 fold | 7.9 | 50% and 51% |  |
